# Structures can show the parent of a compound that is named as a salt.
# Tests used:
# FtsZ [1] = molecular target: T1, FtsZ (Escherichia coli, UniProt P0A9A6); experiment: Fluorescence binding assay (quenching of compound fluorescence by FtsZ); parameters: species or system E. coli; settings: dissociation constant Kd, excitation 295 nm, emission 327 nm, 20 °C
# T1 construct: made in house; host or cells: E. coli
# Experimental: Therefore, the intrinsic fluorescence of compound 1c was monitored at increasing concentrations of recombinant FtsZ. The sample was excited at 295 nm, and the fluorescence emission of the compound 1c was recorded.
# A 1.5 mL solution containing the 1c compound was titrated by successive additions of FtsZ protein (from 0.010 to 0.120 µM). Titrations were done manually, and fluorescence spectra were measured in the range of 280–500 nm at the excitation wavelength of 295 nm. The fluorescence spectra were recorded using a Horiba Scientific Fluoromax-4 spectrofluorometer, using a quartz cell with an optical path of 1 cm, under controlled temperature conditions (Peltier control system at 20 °C). All experiments were carried out in duplicate. The change in the fluorescence intensity of the reaction set was fitted into the “one site-specific binding” equation of GraphPad Prism 8 (GraphPad Software, San Diego, CA, USA).
# Figure 6 Fluorescence binding assay of compound 1c with FtsZ. (a) Emission fluorescence spectra at different concentrations of FtsZ. (b) ΔF at 325 nm vs FtsZ concentration. Experimental data were adjusted to a non-linear regression, and the Kd binding constant was estimated using GraphPad Prism 8. The experiments were performed in duplicate, and the standard deviation is reported as error bars.
# FtsZ [2] = molecular target: T1, FtsZ; experiment: FtsZ GTPase assay (BIOMOL Green, Pi release); type: biochemical, E. coli; settings: for inhibition mechanism on FtsZ GTPase activity: from KM and Vmax changes at 40 µM compound; for Vmax (Pi Released/min): in presence of 40 µM compound, 6 µM FtsZ, pH 6.8, untreated 0.63 ± 0.01
# Experimental: The functional effect of the berberine analogues 1c,d,f,i, and 1-2g,h on FtsZ was investigated by enzymatic assays. A recombinant form of FtsZ was produced in E. coli, purified according to [21], and used for binding assays. The GTPase activity of the FtsZ protein was assayed in the presence of the berberine-related compounds at 40 μM concentration and was monitored in comparison with the untreated protein at different GTP concentrations. The kinetic parameters were calculated according to the Michaelis–Menten equation using GraphPad Prism 8 for all the berberine-related compounds. The software returned KM (μM) and Vmax (Pi released/min) kinetic parameters that indicated the mechanism of inhibition exerted by each compound.
# The determination of the inhibition constant Ki for these compounds was performed to further investigate the mode of inhibition and clarified the potency of the competitive inhibitors. The Ki values were calculated performing kinetic analyses at different concentrations of competitive inhibitors (20 μM, 40 μM, and 60 μM).
# The FtsZ GTPase assay was performed using 6 μM FtsZ in reaction buffer 25 mM PIPES/NaOH, pH 6.8. The mixture containing FtsZ was incubated for 30 min at 30 °C, and different concentrations of GTP (from 0 µM to 500 µM) were added for a reaction time of 10 min, either in the absence or in the presence of 40 µM 1c, 1d, 1f, 1i, 1g, 1h, 2g, and 2h. The reaction was performed for 10 min and stopped by the addition of 100 µL BIOMOL Green reagent. The amount of Pi released during the assembly of FtsZ was monitored using BIOMOL Green phosphate reagent (Biomol, Milan, Italy) after incubation at 25 °C for 25 min by measuring the absorbance at 620 nm. The negative control (without enzyme) was subtracted from all the readings. The experiment was performed in duplicate. The data were elaborated in order to report U/mg VS substrate concentration, and kinetic parameters were fitted by nonlinear regression with GraphPad Prism 8 (GraphPad Software, San Diego, CA, USA). The inhibition constant (Ki) for all competitive inhibitors was calculated performing different kinetic analyses in the presence of 20, 40, and 60 µM of compounds and using the following equation: Ki=I/α−1 where α=KMapp/KM
# FtsZ [3] = molecular target: T1, FtsZ; experiment: FtsZ polymerization assay by sedimentation, SDS-PAGE densitometry; type: biochemical, E. coli; settings: inhibitor concentration 60 µM, 150 µM GTP
# Experimental: Inhibition of the GTPase activity of FtsZ might prevent the polymerization of the protein, which is well known to occur in the presence of GTP. We then investigated the effect of berberine analogues on the polymerization of FtsZ. The recombinant protein was incubated with 150 µM GTP in the absence and in the presence of increasing concentrations of berberine-related compounds. The FtsZ filaments were purified by centrifugation, analysed by SDS-PAGE, and the amount of polymerized protein was determined by densitometric analysis of the corresponding Coomassie-stained gel bands.
# Assays for FtsZ polymerization by sedimentation were performed by incubating 6 μM FtsZ with 150 µM GTP in 25 mM PIPES/NaOH, pH 6.8 for 60 min at 25 °C. The assays were carried out in the presence and in the absence of 20 μM, 40 μM, and 60 μM of berberine analogues. The reaction mixtures were centrifuged for 60 min at 14,000 rpm, the pellets were run on 12.5% sodium dodecyl sulphate (SDS)-polyacrylamide gels, and stained by Coomassie blue. Subsequently, the images of the gels were acquired by ChemiDocTM, and the relative amount of FtsZ in the bands was determined densitometrically using the Quantity One software.
# Figure 3 Polymerization assay of recombinant FtsZ (6 µM) was carried out in 25 mM PIPES/NaOH, pH 6.8, and 150 µM of GTP in the presence of berberine analogues. […]
# FtsZ [4] = molecular target: T1, FtsZ; experiment: TEM microscopy of FtsZ protofilaments; type: biochemical, E. coli; settings: 60 µM compound, 150 µM GTP
# Experimental: The capability of berberine analogue 1i to inhibit FtsZ polymerization was also assessed by TEM microscopy, by analysing the FtsZ protofilaments of in the presence of 60 µM 1i in comparison with the untreated sample.
# FtsZ polymerization reaction solutions were diluted 1:10 in polymerization buffer in the presence and in the absence of 60 µM 1c and 1i. Then, 5 µL drops of the samples for TEM analysis were placed on a carbon-coated copper TEM grid for 20 min. Excess solution was wicked away with filter paper. Negative staining with 1% phosphotungstic acid (PTA) solution at pH 7.0 was carried out by depositing a drop of PTA solution on the grid for 1 min and then blotted dry with filter paper. The grid was allowed to dry, and images were collected using a FEI TECNAI G2 S-twin apparatus operating at 120 kV (LaB6 source).
# Figure 4 Transmission electron microscopic images of FtsZ in the absence (a) and in the presence of 1i inhibitors (b). The protofilaments are seen to be polymerized in an organized manner in the absence of inhibitor (a). 1i at 60 μM concentrations inhibit the FtsZ polymerization. Experimental conditions for all the FtsZ polymerization studies were […], PIPES 25 mM pH 6.8, KCl 50 mM, and 150 µM GTP.
# E. coli = experiment: Minimum inhibitory concentration determination; type: cell-based; settings: Escherichia coli, 24 h, read-out: MIC E. coli
# Experimental: Finally, we evaluated the in vitro antimicrobial activity of the newly synthesized berberine analogues (2g,h) on E. coli strain. The Minimal Inhibitory Concentrations (MICs) of both compounds were determined as the lowest concentration showing no visible growth after 24 h of incubation. The MIC values for 2g and 2h are reported in Table 4, together with the most interesting compounds previously reported.
# In brief, the bacterial strain was incubated overnight in LB at 37 °C. The cultures were diluted approximately to 5 × 10^5 CFU/mL, and 50 μL of bacterial suspension was added to ten wells and incubated with serial dilutions of berberine analogues from an initial concentration of 500 µM. The sterility control well contained 100 μL of LB, while the growth control well contained 100 μL of microbial suspension. […] All determinations of all assays were performed in triplicate.
# T1 sequence (P0A9A6 whole entry): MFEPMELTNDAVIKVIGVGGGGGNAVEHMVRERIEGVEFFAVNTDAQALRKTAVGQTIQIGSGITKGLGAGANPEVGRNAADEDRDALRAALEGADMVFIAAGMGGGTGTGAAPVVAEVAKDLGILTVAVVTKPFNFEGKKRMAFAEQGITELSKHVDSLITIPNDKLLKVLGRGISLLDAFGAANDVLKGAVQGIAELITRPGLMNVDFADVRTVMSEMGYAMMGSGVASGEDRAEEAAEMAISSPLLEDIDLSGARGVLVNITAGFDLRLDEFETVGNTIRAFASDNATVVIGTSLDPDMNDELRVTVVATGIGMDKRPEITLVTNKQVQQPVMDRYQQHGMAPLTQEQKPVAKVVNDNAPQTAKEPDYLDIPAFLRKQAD
Structure (SMILES),Kd (FtsZ [1]) [nM],Ki (FtsZ [2]) [µM],inhibition mechanism on FtsZ GTPase activity (FtsZ [2]),Vmax (Pi Released/min) (FtsZ [2]) [Pi released/min],amount of polymerized FtsZ (FtsZ [3]),FtsZ protofilaments observed by TEM (FtsZ [4]),MIC (E. coli) [µM],melting point [°C]
COc1cccc(CN(C)CCc2ccc3c(c2)OCO3)c1OC [1c],26.6,25,classical competitive inhibition mechanism,0.54 ± 0.03,–,–,–,–
CCN(CCc1ccc2c(c1)OCO2)Cc1cccc(OC)c1OC [1d],–,44,classical competitive inhibition mechanism,0.58 ± 0.01,–,–,–,–
CCCCCCN(CCc1ccc2c(c1)OCO2)Cc1cccc(OC)c1OC [1f],–,–,non-competitive inhibition mechanism,0.35 ± 0.01,–,–,–,–
Clc1ccc(CNCCc2ccc3c(c2)OCO3)cc1 [1g],–,41,classical competitive inhibition mechanism,0.60 ± 0.02,–,–,–,–
c1ccc2c(CNCCc3ccc4c(c3)OCO4)cccc2c1 [1h],–,119,classical competitive inhibition mechanism,0.59 ± 0.01,–,–,–,–
O=[N+]([O-])c1ccccc1CNCCc1ccc2c(c1)OCO2 [1i],–,–,non-competitive inhibition mechanism,–,almost negligible,no protofilaments could be observed,–,–
"CN(CCc1ccc2c(c1)OCO2)Cc1ccc(Cl)cc1 [2g, 2-(1,3-Benzodioxol-5-yl)-N-[(4-chlorobenzyl]-N-methylethan-1-amine hydrochloride]",–,–,acompetitive inhibitory mechanism,–,–,–,128,–
"CN(CCc1ccc2c(c1)OCO2)Cc1cccc2ccccc12.Cl [2h, 2-(2H-1,3-Benzodioxol-5-yl)-N-methyl-N-[(naphthalen-1-yl)methyl]ethan-1-amine hydrochloride]",–,51,classical competitive inhibition mechanism,0.58 ± 0.01,–,–,> 512,188 to 190

# From paper PMC10057996, “A Comparative Study of the Inhibitory Action of Berberine Derivatives on the Recombinant Protein FtsZ of E. coli” (International Journal of Molecular Sciences, 2023)
